“Also recorded” adds a separate entry of the source.
Key:
TNF-α mRNA expression = assay: Chronic ethanol feeding model: hepatic inflammation, TNF-α mRNA expression by RT-PCR; format: in vivo, mouse; conditions: WT mice fed EtOH, JWH-133 3 mg/kg daily intraperitoneal during 10 day ethanol feeding, vs. vehicle
Protocol: Animals. Female mice (8-10 week old) were used for the experiments and included wild type (WT) C57B1/6J mice (Janvier, France) and mice with a targeted mutation of the Cnr2 gene (Buckley et al. 2000). Homozygous Cnr2−/− animals were obtained from heterozygous Cnr2+/− mice that were backcrossed with WT C57Bl/6J animals over 10 generations, and further intercrossed to obtain homozygous animals. Genotyping was performed on tail genomic DNA using QuantiTect™ SYBR® Green PCR kit (Qiagen). Animals were housed in temperature and humidity controlled rooms, kept on a 12-h light/dark cycle and provided unrestricted amounts of food and water. […]
(§1) Chronic exposure to ethanol. […] Body weight and food intake were measured daily.
(§2) The impact of the CB2 agonist JWH-133 or its vehicle was evaluated in WT mice that were treated with a daily intraperitoneal injection of JWH-133 (3 mg/kg) or its vehicle during the 10 day feeding with ethanol. […] Body weight and food intake were measured daily. […]
RNA preparation and RT-PCR. […] Quantitative real time-PCR was carried out on a Light Cycler (Roche Diagnostics), as previously described (Julien et al. 2005). Oligonucleotide primers (MWG Biotech) for the following mouse genes were used: mouse Rn18S; mouse Tnf, PCR amplified products were analyzed on a 2% agarose gel and sequenced.

[1] = tested on: WT mice fed EtOH (EtOH-induced hepatic steatosis); assay: Chronic ethanol feeding model (modified Lieber-De Carli diet, 10 days): hepatic steatosis; format: in vivo, mouse; conditions: JWH-133 3 mg/kg daily intraperitoneal during 10 day ethanol feeding, vs. vehicle
Protocol: Animals. Female mice (8-10 week old) were used for the experiments and included wild type (WT) C57B1/6J mice (Janvier, France) and mice with a targeted mutation of the Cnr2 gene (Buckley et al. 2000). Homozygous Cnr2−/− animals were obtained from heterozygous Cnr2+/− mice that were backcrossed with WT C57Bl/6J animals over 10 generations, and further intercrossed to obtain homozygous animals. Genotyping was performed on tail genomic DNA using QuantiTect™ SYBR® Green PCR kit (Qiagen). Animals were housed in temperature and humidity controlled rooms, kept on a 12-h light/dark cycle and provided unrestricted amounts of food and water. Animal procedures were conducted in accordance with French government policies (Services Vétérinaires de la Santé et de la Production Animale, Ministère de l'Agriculture).
as §1, §2
Hepatic triglyceride quantification. […] Triglycerides were quantified with a triglyceride determination kit (Sigma), on liver samples from 10-15 animals per group.

Compound: CCCC(C)(C)c1ccc2c(c1)OC(C)(C)[C@@H]1CC=C(C)C[C@@H]21 [JWH-133, (6aR,10aR)-3-(1,1-dimethylbutyl)-6a,7,10,10a-tetrahydro-6,6,9-trimethyl-6Hdibenzo[b,d]pyran]
- TNF-α mRNA expression in liver (TNF-α mRNA expression): prevents the increase; also recorded: reduced TNF-α mRNA levels to control levels
- hepatic triglyceride content [1]: decrease; also recorded: strongly reduced
- liver/body weight ratio [1]: decrease; also recorded: strongly reduced
